Test results from patent publication US20260130395A1, “Water Dispersible Botanical Compositions” (Aquila Black Limited, priority 2021, published 2026).

Assay: Stability of cannabinoid compounds and Vitamin E components in Beverage 1 (AB White) by LCMSMS
Format: physicochemical
Settings: for Stability of Plant-Derived Cannabinoid Compounds in AB White, 8° C.: AB White stored at 8° C.; for Stability of Plant-Derived Cannabinoid Compounds in AB White, 21-25° C.: AB White stored at 21-25° C.

## CCCCCc1cc(O)c(C/C=C(\C)CCC=C(C)C)c(O)c1 [CBG, cannabigerol]
29 days
  Stability of Plant-Derived Cannabinoid Compounds in AB White, 8° C.: 4.91 µg/mL
  Stability of Plant-Derived Cannabinoid Compounds in AB White, 21-25° C.: 4.76 µg/mL
30 days
  Stability of Plant-Derived Cannabinoid Compounds in AB White, 8° C.: 4.79 µg/mL
  Stability of Plant-Derived Cannabinoid Compounds in AB White, 21-25° C.: 4.73 µg/mL
60 days
  Stability of Plant-Derived Cannabinoid Compounds in AB White, 8° C.: 4.68 µg/mL
  Stability of Plant-Derived Cannabinoid Compounds in AB White, 21-25° C.: 4.83 µg/mL
90 days
  Stability of Plant-Derived Cannabinoid Compounds in AB White, 8° C.: 4.66 µg/mL
  Stability of Plant-Derived Cannabinoid Compounds in AB White, 21-25° C.: 4.65 µg/mL
120 days
  Stability of Plant-Derived Cannabinoid Compounds in AB White, 8° C.: 4.89 µg/mL
  Stability of Plant-Derived Cannabinoid Compounds in AB White, 21-25° C.: 4.59 µg/mL
150 days
  Stability of Plant-Derived Cannabinoid Compounds in AB White, 8° C.: 4.83 µg/mL
  Stability of Plant-Derived Cannabinoid Compounds in AB White, 21-25° C.: 4.63 µg/mL
180 days
  Stability of Plant-Derived Cannabinoid Compounds in AB White, 8° C.: 4.71 µg/mL
  Stability of Plant-Derived Cannabinoid Compounds in AB White, 21-25° C.: 4.79 µg/mL
210 days
  Stability of Plant-Derived Cannabinoid Compounds in AB White, 8° C.: 4.73 µg/mL
  Stability of Plant-Derived Cannabinoid Compounds in AB White, 21-25° C.: 4.75 µg/mL
240 days
  Stability of Plant-Derived Cannabinoid Compounds in AB White, 8° C.: 4.69 µg/mL
  Stability of Plant-Derived Cannabinoid Compounds in AB White, 21-25° C.: 4.79 µg/mL
270 days
  Stability of Plant-Derived Cannabinoid Compounds in AB White, 8° C.: 4.72 µg/mL
  Stability of Plant-Derived Cannabinoid Compounds in AB White, 21-25° C.: 4.62 µg/mL
300 days
  Stability of Plant-Derived Cannabinoid Compounds in AB White, 8° C.: 4.74 µg/mL
  Stability of Plant-Derived Cannabinoid Compounds in AB White, 21-25° C.: 4.67 µg/mL
330 days
  Stability of Plant-Derived Cannabinoid Compounds in AB White, 8° C.: 4.69 µg/mL
  Stability of Plant-Derived Cannabinoid Compounds in AB White, 21-25° C.: 4.71 µg/mL
360 days
  Stability of Plant-Derived Cannabinoid Compounds in AB White, 8° C.: 4.66 µg/mL
  Stability of Plant-Derived Cannabinoid Compounds in AB White, 21-25° C.: 4.69 µg/mL
390 days
  Stability of Plant-Derived Cannabinoid Compounds in AB White, 8° C.: 4.68 µg/mL
  Stability of Plant-Derived Cannabinoid Compounds in AB White, 21-25° C.: 4.70 µg/mL
420 days
  Stability of Plant-Derived Cannabinoid Compounds in AB White, 8° C.: 4.66 µg/mL
  Stability of Plant-Derived Cannabinoid Compounds in AB White, 21-25° C.: 4.72 µg/mL
450 days
  Stability of Plant-Derived Cannabinoid Compounds in AB White, 8° C.: 4.68 µg/mL
  Stability of Plant-Derived Cannabinoid Compounds in AB White, 21-25° C.: 4.73 µg/mL
480 days
  Stability of Plant-Derived Cannabinoid Compounds in AB White, 8° C.: 4.64 µg/mL
  Stability of Plant-Derived Cannabinoid Compounds in AB White, 21-25° C.: 4.46 µg/mL
510 days
  Stability of Plant-Derived Cannabinoid Compounds in AB White, 8° C.: 4.49 µg/mL
  Stability of Plant-Derived Cannabinoid Compounds in AB White, 21-25° C.: 4.51 µg/mL
540 days
  Stability of Plant-Derived Cannabinoid Compounds in AB White, 8° C.: 4.53 µg/mL
  Stability of Plant-Derived Cannabinoid Compounds in AB White, 21-25° C.: 4.48 µg/mL
570 days
  Stability of Plant-Derived Cannabinoid Compounds in AB White, 8° C.: 4.46 µg/mL
  Stability of Plant-Derived Cannabinoid Compounds in AB White, 21-25° C.: 4.47 µg/mL
0 days
  Stability of Plant-Derived Cannabinoid Compounds in AB White, 21-25° C.: 4.87 µg/mL
1 days
  Stability of Plant-Derived Cannabinoid Compounds in AB White, 21-25° C.: 4.73 µg/mL
2 days
  Stability of Plant-Derived Cannabinoid Compounds in AB White, 21-25° C.: 4.72 µg/mL
3 days
  Stability of Plant-Derived Cannabinoid Compounds in AB White, 21-25° C.: 4.75 µg/mL
5 days
  Stability of Plant-Derived Cannabinoid Compounds in AB White, 21-25° C.: 4.89 µg/mL
8 days
  Stability of Plant-Derived Cannabinoid Compounds in AB White, 21-25° C.: 4.90 µg/mL
9 days
  Stability of Plant-Derived Cannabinoid Compounds in AB White, 21-25° C.: 4.79 µg/mL
10 days
  Stability of Plant-Derived Cannabinoid Compounds in AB White, 21-25° C.: 4.68 µg/mL
11 days
  Stability of Plant-Derived Cannabinoid Compounds in AB White, 21-25° C.: 4.74 µg/mL
12 days
  Stability of Plant-Derived Cannabinoid Compounds in AB White, 21-25° C.: 4.88 µg/mL
15 days
  Stability of Plant-Derived Cannabinoid Compounds in AB White, 21-25° C.: 4.87 µg/mL
16 days
  Stability of Plant-Derived Cannabinoid Compounds in AB White, 21-25° C.: 4.80 µg/mL
17 days
  Stability of Plant-Derived Cannabinoid Compounds in AB White, 21-25° C.: 4.80 µg/mL
18 days
  Stability of Plant-Derived Cannabinoid Compounds in AB White, 21-25° C.: 4.72 µg/mL
19 days
  Stability of Plant-Derived Cannabinoid Compounds in AB White, 21-25° C.: 4.68 µg/mL
22 days
  Stability of Plant-Derived Cannabinoid Compounds in AB White, 21-25° C.: 4.68 µg/mL
23 days
  Stability of Plant-Derived Cannabinoid Compounds in AB White, 21-25° C.: 4.85 µg/mL
24 days
  Stability of Plant-Derived Cannabinoid Compounds in AB White, 21-25° C.: 4.80 µg/mL
25 days
  Stability of Plant-Derived Cannabinoid Compounds in AB White, 21-25° C.: 4.86 µg/mL
26 days
  Stability of Plant-Derived Cannabinoid Compounds in AB White, 21-25° C.: 4.78 µg/mL
